The record followed here is PubChem BioAssay AID179 (DTP/NCI, 2004).

The source made the active and inactive calls.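 The calls were made as follows: active = compounds giving half or more protection of infected cells from virus-caused growth loss, again on retest; inactive = the rest.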 Where a SMILES comes first, the peptide text is derived from it. The star is where a group is joined. Cbz = O=C(OCc1ccccc1)*

This test concerns CEM cells HIV-1 protection, formazan growth assay. Description: NCI AIDS Antiviral Assay. The following applies: for IC50: measured here: growth of uninfected CEM cells. The gist of the method: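 Protection of CEM cells against HIV-1 measured as cell growth via soluble formazan read-out, with five concentrations tested on both infected and uninfected cells; failure to protect may reflect toxicity.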

Usually EC50 stands for the concentration that produces a half-maximal response. Broadly, the IC50 is the concentration that gives 50% inhibition. A higher IC50 goes with lower potency. For `O=C(CC1(O)C(=O)Nc2c(Cl)cc(Cl)cc21)c1ccc2ccccc2c1` (configuration not stated), the EC50 is over 49 µM and the IC50 amounted to 20.4 µM.
Take `CN(C)/C=C/c1c2c(nc3ccccc13)C(=O)c1cccnc1C2=O`: the result was inactive.
For the molecule `COc1ccc(Nc2cc(=O)[nH]c(=O)[nH]2)cc1`, the EC50 was over 200 µM and the IC50 is over 200 µM.
Regarding `Cc1cc(N(CCC#N)CCC#N)ccc1/C(N=Nc1ccc([N+](=O)[O-])cc1)=N\NC(=O)c1cc(Cl)ccc1O`, the EC50 is over 200 µM and the IC50 was determined as 22.9 µM.
For the molecule `CC12CC3C(CC1SCC(=O)O2)C3(C)C` (configuration not stated), the EC50 was over 302 µM and the IC50 was over 302 µM.
On to `CN1CCCCC1CCN1c2ccccc2Sc2ccc(S(C)=O)cc21` (configuration not stated), for which the EC50 is 166 µM and the IC50 worked out at 219 µM.
As for `COc1cc(C2c3cccc4cccc(c34)C3CCC(=O)N32)cc(O)c1O` (configuration not stated), the EC50 is 3.02 µM and the IC50 is 9.33 µM.
The like results for `[N-]=[N+]=NC1C[C@H](n2cc(/C=C/Br)c(=O)[nH]c2=O)C[C@@H]1CO` (some centres not stated) were, in that order, over 363 µM and 355 µM.
The like results for `CC(C)(C)[Si](C)(C)OC[C@H]1O[C@@H](n2ccc(=O)[nH]c2=O)[C@H](O[Si](C)(C)C(C)(C)C)[C@@]12N[C@H](C(=O)O)CS2` were, in that order, over 200 µM and 10 µM.
Regarding `CNc1nc(N)[nH]c(=O)c1N=O`, the outcome was inactive.
Take `C/C(=N/O)c1sc(-c2nc(C)c(/C(C)=N\O)s2)nc1C`: the EC50 was over 115 µM and the IC50 is over 115 µM.
With `CC(C(=O)OCc1ccccc1)(c1ccco1)N1C(=O)OC(c2ccccc2)C1c1ccccc1` (configuration not stated), the EC50 was over 200 µM and the IC50 was determined as 13.5 µM.
`CN1CCc2cc3c4cc2C1Cc1ccc(cc1)Oc1cc(ccc1O)CC1c2c(cc(O)c(c2O4)O3)CCN1C` (configuration not stated): the outcome was inactive.
Regarding `CCOC(=O)/C(C#N)=C/c1ccc(Cl)cc1`, the EC50 is over 110 µM and the IC50 is over 110 µM.
Consider `CC(C)[Si](OC1=CCCCCC12C(=O)N(C)c1ccccc12)(C(C)C)C(C)C` (configuration not stated), for which the EC50 is over 200 µM and the IC50 came out at 33.9 µM.
With `CC1=CC(C)(C)NC(=S)N1c1ccc(C)c(N2C(=S)NC(C)(C)C=C2C)c1`, the outcome was inactive.
As to `CCOC(=O)c1nn(Cc2ccccc2)c(=S)[nH]c1=O`, the result was inactive and the IC50 is 123 µM.
Regarding `CC1(C)CC(C2CC(C)(C)CC(C)(C)[C@H]2O)[C@@H](O)C(C)(C)C1` (some centres not stated), the EC50 is over 12 µM and the IC50 is over 12 µM.
Take `Oc1cc(O)c(C2c3ccc(O)cc3OC(c3ccc(O)c(O)c3)C2O)c(O)c1` (configuration not stated): the EC50 was over 46.8 µM and the IC50 is over 46.8 µM.
Turning to `OC1c2ccccc2-c2nc3cccccc-3c21` (configuration not stated), the EC50 was over 155 µM and the IC50 turned out to be 24 µM.
With `O=C1CC(=O)N(CCc2ccccn2)C(=O)N1CCc1ccccn1`, the result was inactive.
For the molecule `CSc1nc(C)cc(Nc2ccc(O)c(CN3CCCCC3)c2)n1`, the EC50 was over 155 µM and the IC50 amounted to 64.6 µM.
For the molecule `CSC1=C(C(=O)Nc2ccccc2)C(N)=NC1=O`, the EC50 is over 200 µM and the IC50 was 141 µM.
The like results for `Oc1cc2ccccc2cc1OC(F)(F)c1nc2ccccc2o1` were, in that order, over 200 µM and 12.3 µM.
Regarding `CC1=C(C(=O)Nc2ccccc2C)C(c2ccc(C3C(C(=O)Nc4ccccc4C)=C(C)NC(C)=C3C(=O)Nc3ccccc3C)cc2)C(C(=O)Nc2ccccc2C)=C(C)N1`, the result was inactive.
With `O=C1Nc2ccc([N+](=O)[O-])c3c([N+](=O)[O-])ccc1c23`, the EC50 was over 200 µM and the IC50 stood at 1.02 µM.
Take `CC(=O)OCC1C(OC(C)=O)C(OC(C)=O)C(OC(C)=O)P1(=O)c1ccccc1` (configuration not stated): the EC50 is over 589 µM and the IC50 was 537 µM.
Turning to `O=C1OCCN1N1C(=O)CC2(CCN(Cc3ccccc3)CC2)C1=O`, the EC50 was over 200 µM and the IC50 was over 200 µM.
As for `Nc1cccc(C#Cc2cccc(C#Cc3cccc(N)n3)n2)n1`, the EC50 is over 200 µM and the IC50 was 75.9 µM.
With `Cc1cc(C2CCCCC2)n(O)c(=O)c1`, the outcome was inactive.
In the case of `OCC[P+](c1ccccc1)(c1ccccc1)c1ccccc1`, the EC50 was over 200 µM and the IC50 was determined as 12.3 µM.
Regarding `COC(=O)C(CCCN1C(=O)c2ccccc2C1=O)C(=O)OC`, the result was inactive.
Consider `COC(=O)CNC(=O)C(CC(C)C)NC(=O)C(CC(C)C)NC(=O)C(C)NC(=O)OCc1ccccc1` (configuration not stated) (Cbz-ALLG-OMe; configuration not given here), for which the outcome was inactive.
As to `O=C1c2cccc3cccc(c23)C(=O)N1c1ccc([N+](=O)[O-])cc1[N+](=O)[O-]`, the EC50 was over 200 µM and the IC50 is 120 µM.
As to `COc1ccc2[nH]c3c(c2c1)CCc1c(OC)cccc1-3`, the EC50 is over 200 µM and the IC50 turned out to be 178 µM.
As for `COc1ccc(/C(=N\NC(=O)NN)C(c2ccc(OC)cc2)C2(O)C(=O)Nc3c(Cl)cc(Cl)cc32)cc1` (configuration not stated), the EC50 was over 9.55 µM and the IC50 was over 9.55 µM.
Take `COC/C=C\[C@@]1(O)CCCC[C@@H]1CC(OC)OC`: the EC50 was over 200 µM and the IC50 was 1.23 µM.
In the case of `OCCCNCC(O)c1ccc(OCc2ccccc2)c(OCc2ccccc2)c1` (configuration not stated), the EC50 was over 200 µM and the IC50 was determined as 5.13 µM.
For `O=C(O)c1cc2c([nH]1)-c1cc(C(=O)O)c(C(=O)O)nc1C(=O)C2=O`, the outcome was inactive.
Take `CC1(C2(C)OC(=O)c3ccccc32)OC(=O)c2ccccc21` (configuration not stated): the EC50 is over 200 µM and the IC50 is over 200 µM.
As to `O=C(NCCNCCNC(=O)C(F)(F)F)C(F)(F)F`, the EC50 was over 200 µM and the IC50 was over 200 µM.
On to `CCS(=O)c1c2cc(OC)ccc2nc2ccc(OC)cc12` (configuration not stated), for which the EC50 was over 200 µM and the IC50 stood at 1.38 µM.
As to `COc1cccc(/C(C=O)=C(\Cl)c2ccc(OC)c(OC)c2)c1`, the EC50 was over 21.9 µM and the IC50 was determined as 11.5 µM.
With `O=C(/C=C/c1ccccc1)c1cc2c(cc1O)OCO2`, the EC50 is over 70.8 µM and the IC50 was found to be 5.25 µM.
For `OC(c1cccnc1)C(F)(F)c1nc2ccccc2o1` (configuration not stated), the EC50 was over 200 µM and the IC50 is over 200 µM.
As for `CC(C)(C)C1CCC2c3c([nH]c4ccccc34)C3C(=O)N(c4ccccc4)C(=O)C3C2C1` (configuration not stated), the outcome was inactive.
With `COC1=CC(=O)C2C(C1=O)C(c1ccc(Cl)cc1)[C@@H]2C` (some centres not stated), the EC50 is over 170 µM and the IC50 amounted to 28.2 µM.
`CC(C)CC1N=C(OCc2ccccc2)OC1=O` (configuration not stated): the EC50 is over 200 µM and the IC50 was over 200 µM.
In the case of `O=[N+]([O-])c1ccccc1P1(=O)OCCO1`, the EC50 was over 200 µM and the IC50 was over 200 µM.
`CC(=O)CN(Cc1cc(C)c2c(c1)c1ccccc1n2Cc1ccccc1)S(=O)(=O)c1ccc(C)cc1`: the EC50 is over 19.5 µM and the IC50 is over 19.5 µM.
Consider `CC1=C(O)c2cn(C)cc2C(=O)C1=O`, for which the result was inactive.
As to `CC(=O)NC1COC(COC(=O)CCCCCCCCCCNC(=O)c2ccc([N+](=O)[O-])c3c(=O)c4ccccc4[nH]c23)C(O)C1OC(C)C(=O)NC(C(=O)NC(CCC(N)=O)C(=O)OCc1ccccc1)C(C)C` (configuration not stated), the EC50 was over 9.55 µM and the IC50 is over 9.55 µM.
For `N#CCCN(CCCN(CCCN(C(=O)Nc1ccccc1)c1ccccc1)C(=O)Nc1ccccc1)C(=O)Nc1ccccc1`, the EC50 was over 200 µM and the IC50 is 87.1 µM.
In the case of `CCOC(=O)/C(C#N)=C(O)/C(=C\c1ccc(Br)cc1)NC(=O)c1ccccc1`, the EC50 was over 562 µM and the IC50 was over 562 µM.
As to `O=S(=O)(c1ccc(NC(=S)Nc2ccccc2)cc1)c1ccc(NC(=S)Nc2ccccc2)cc1`, the EC50 is over 200 µM and the half-inhibitory concentration (IC50) is over 200 µM.
Consider `NC(c1ccccc1)(C(F)(F)F)P1(=O)OC(=O)c2ccccc2O1` (configuration not stated), for which the EC50 is over 200 µM and the IC50 was over 200 µM.
For `O=S(=O)(O)CCCNC(CO)(CO)CO`, the EC50 was over 200 µM and the IC50 was over 200 µM.
Take `C=CCn1c(-c2cc(C(C)(C)C)c(O)c(C(C)(C)C)c2)cs/c1=N\C(P(=O)(O)O)P(=O)(O)O`: the EC50 is over 200 µM and the IC50 was 21.4 µM.
In the case of `CCC[CH2][Sn]1([CH2]CCC)[O]N=Cc2ccccc2[O]1`, the EC50 was over 14.1 µM and the IC50 stood at 0.437 µM.
With `CC1S(=O)C(C)S(=O)C(C)S1=O` (configuration not stated), the outcome was inactive.
Turning to `CC(C)=CCC/C(C)=C/Cc1cc2ccc(=O)oc2cc1O`, the EC50 is over 63.1 µM and the IC50 was determined as 32.4 µM.
For `CCCCCCCCCCC/C=C(/C(=O)CCCO[Si](C)(C)C(C)(C)C)C(=O)OC`, the EC50 was over 200 µM and the IC50 is over 200 µM.
Take `COc1ccc(/C(C#N)=C/c2ccccc2OC)cc1`: the EC50 is over 200 µM and the IC50 came out at 11.5 µM.
Turning to `CC(=O)Nc1ccc2cc(C)c(=O)[nH]c2n1`, the EC50 was over 200 µM and the IC50 was over 200 µM.
For the molecule `c1ccc2c(c1)Nc1nc3ccccc3nc1N2`, the EC50 was over 100 µM and the IC50 was over 100 µM.
`CN1C(=S)NC2C(O)C(O)C(CO)OC21` (configuration not stated): the EC50 is over 1070 µM and the IC50 is over 1070 µM.
On to `CNc1nc(SC)nc2c1c(N)nn2C`, for which the EC50 is over 200 µM and the half-inhibitory concentration (IC50) was over 200 µM.
With `C=CCCCN1CCCCC1=S`, the EC50 is over 251 µM and the IC50 was over 251 µM.
As to `COc1nc(N)c(N=O)c(OCc2ccccc2)n1`, the EC50 was over 200 µM and the IC50 is 3.98 µM.
Regarding `N#CC1Sc2ccccc2-n2cccc21` (configuration not stated), the result was inactive.
For the molecule `Cc1ccc(C2=[N+]([O-])c3ccccc3C2=O)cc1`, the result was inactive.
For `COC(=O)C(Cc1ccccc1)OC(=O)C(N)CC(=O)O` (configuration not stated), the EC50 is over 200 µM and the IC50 was over 200 µM.
In the case of `O=C(/C=C/c1ccccc1O)c1ccccc1O`, the EC50 was over 209 µM and the IC50 was over 209 µM.
For `CC1Cc2c(N)nc(N3CCOCC3)nc2NC1=O` (configuration not stated), the outcome was inactive.
